# Test results reported in patent publication US9744164B2, “Neuroprotective polyphenol analogs” (Salk Institute for Biological Studies, priority 2011, dated 2017).
# Test system: N9 microglial cells
# Experiment: anti-inflammatory assay, LPS-induced microglial activation (NO release)
# Format: cell-based, mouse
# Settings: bacterial lipopolysaccharide, derivative 1-10 μM, 24 hr
# Procedure: Anti-inflammatory assay. Mouse N9 microglial cells plated in DME with 7.5% DFCS were treated with 10 μg/ml bacterial lipopolysaccharide (Sigma) alone or in the presence of the Fisetin derivatives (1-10 μM) or Fisetin (10 μM) as a positive control. After 24 hr the medium was removed, spun briefly to remove floating cells and 100 μl assayed for NO using 100 μl of the Griess Reagent (Sigma) in a 96 well plate. After incubation for 10 min at room temperature the absorbance at 550 nm was read on a microplate reader.
# Three secondary screens allowed assessment of three key activities of Fisetin that are highly relevant to stroke, as well as other neurological disorders: maintenance of glutathione (GSH), the major endogenous cellular antioxidant, inhibition of LPS-induced microglial activation, an indicator of anti-inflammatory activity and PC12 cell differentiation, a measure of neurotrophic activity. All of these activities are relevant to the nerve cell loss seen in stroke (Gelderblom, et al., Stroke. 2009, 40 (5), 1849-1857; Pandya, et al., Cent. Nerv. Syst. Agents. Med. Chem. (2011) Apr. 27; Lewerenz, et al., J. Neurochem. (2010) 113 (2), 502-504). […] To assess GSH maintenance, total intracellular GSH levels after a 24 hr treatment with the compound both in the absence and presence of glutamate, an inducer of GSH loss and oxidative stress (Tan, et al., Curr. Top. Med. Chem. (2001) 1, 497-506; Maher, et al., Free Radical Research. (2006) 40 (10), 1105-1111) was measured Inhibition of LPS-induced microglial activation was determined by treating N9 mouse microglial cells with LPS alone and in the presence of the compounds and assaying NO release into the medium 24 hr later (Zheng, et al., Int. Immunopharmacol. (2008) 8, (3), 484-494). PC12 cell differentiation was determined by treating PC12 cells with the compounds and looking at neurite outgrowth after 24 hr. In all cases, Fisetin was used as a positive control (Sagara, et al., J. Neurochem. (2004) 90, 1144-1155).
# The roles of the four different hydroxyl groups in the activity of Fisetin were studied. […] Cell viability was determined after 24 hr by the MTT assay. The ability to maintain GSH (GSH) was determined by treating HT22 cells with different doses of each derivative (1-10 μM) in the presence of 5 mM glutamate. After 24 hr cell extracts were prepared and analyzed for total GSH. Fisetin (10 μM) was used as a positive control. The ability to induce PC12 cell differentiation (PC12 diff'n) was determined by treating PC12 cells in N2 medium with different doses of each derivative (1-10 μM) for 24 hr. Differentiation was assessed by visual inspection with Fisetin (10 μM) as a positive control. Anti-inflammatory activity (microglia) was assessed in N9 microglial cells treated with bacterial lipopolysaccharide alone or in the presence different doses of each derivative (1-10 μM) for 24 hr. Fisetin was used as a positive control. TEAC values, a measure of direct antioxidant activity, were determined using the ABTS+ decolorization assay.
row,SMILES,microglia (anti-inflammatory activity)
1,"COc1cc(-c2cc(OC)c3ccccc3n2)ccc1O [CMS-017, 4-methoxy-2-(4-hydroxy,3-methoxyphenyl)quinoline]",90%
2,"COc1cc(-c2ccccc2)nc2ccccc12 [CMS-021, 4-methoxy-2-phenylquinoline]",6%
3,"CCOc1ccc(-c2oc3cc(C)c(C)cc3c(=O)c2O)cc1OCC [CMS-025, 2-(3,4-diethoxyphenyl)-3-hydroxy-6,7-dimethyl-4H-chromen-4-one]",11%
4,"Cc1cc2oc(-c3ccc(O)c(O)c3)c(O)c(=O)c2cc1C [CMS-027, 2-(3,4-dihydroxyphenyl)-3-hydroxy-6,7-dimethyl-4H-chromen-4-one]",82%
5,"CCOc1ccc(-c2oc3c(ccc4ccccc43)c(=O)c2O)cc1OCC [CMS-036, 2-(3,4-diethoxyphenyl)-3-hydroxy-4H-benzo[h]chromen-4-one]",13%
6,"O=c1c(O)c(-c2ccc(O)c(O)c2)oc2ccc3ccccc3c12 [CMS-041, 3-(3,4-dihydroxyphenyl)-2-hydroxy-1H-benzo[f]chromen-1-one]",87%
7,"COc1cc(-c2cc(=O)c3cc(C)c(C)cc3o2)ccc1OCc1ccccc1 [CMS-058, 2-(4-(benzyloxy)-3-methoxyphenyl)-6,7-dimethyl-4H-chromen-4-one]",83%
8,"COc1cc(-c2oc3cc(C)c(C)cc3c(=O)c2O)ccc1OCc1ccccc1 [CMS-059, 2-(4-(benzyloxy)-3-methoxyphenyl)-3-hydroxy-6,7-dimethyl-4H-chromen-4-one]",14%
9,"COc1cc(/C=C/C(=O)c2ccc3ccccc3c2O)ccc1OCc1ccccc1 [CMS-063, (E)-3-(4-(benzyloxy)-3-methoxyphenyl)-1-(1-hydroxynaphthalen-2-yl)prop-2-en-1-one]",9%
10,"COc1cc(-c2cc(=O)c3cc(C)c(C)cc3o2)ccc1O [CMS-064, 2-(4-hydroxy-3-methoxyphenyl)-6,7-dimethyl-4H-chromen-4-one]",41%
11,"COc1cc(-c2oc3c(ccc4ccccc43)c(=O)c2O)ccc1OCc1ccccc1 [CMS-065, 2-(4-(benzyloxy)-3-methoxyphenyl)-3-hydroxy-4H-benzo[h]chromen-4-one]",88%
12,"COc1cc(-c2oc3cc(C)c(C)cc3c(=O)c2O)ccc1O [CMS-069, 3-hydroxy-2-(4-hydroxy-3-methoxyphenyl)-6,7-dimethyl-4H-chromen-4-one]",77%
13,"COc1cc(-c2oc3c(ccc4ccccc43)c(=O)c2O)ccc1O [CMS-070, 3-hydroxy-2-(4-hydroxy-3-methoxyphenyl)-4H-benzo[h]chromen-4-one]",78%
14,"COc1cc(-c2ccc(O)cc2O)nc2ccccc12 [CMS-083, 4-methoxy-2-(2,4-dihydroxyphenyl)quinoline]",84%
15,"CC(C)Oc1cc(-c2ccc(O)cc2O)nc2ccccc12 [CMS-084, 4-isopropoxy-2-(2,4-dihydroxyphenyl)quinoline]",64%
16,"Cc1cc(O)c(C(=O)/C=C/c2ccc(O)cc2O)cc1C [CMS-087, (E)-3-(2,4-dihydroxyphenyl)-1-(2-hydroxy-4,5-dimethylphenyl)prop-2-en-1-one]",53%
17,"COc1ccc(/C=C/C(=O)c2cc(C)c(C)cc2O)cc1O [CMS-088, (E)-1-(2-hydroxy-4,5-dimethylphenyl)-3-(3-hydroxy-4-methoxyphenyl)prop-2-en-1-one]",56%
18,"COc1ccc(-c2oc3cc(C)c(C)cc3c(=O)c2O)cc1O [CMS-092, 3-hydroxy-2-(3-hydroxy-4-methoxyphenyl)-6,7-dimethyl-4H-chromen-4-one]",72%
